In brackets after ≈: the same amount, converted by molar mass. Where two headings read alike, the source gives them in different places.
Legend:
[1] = MTT cytotoxicity assay; format: cell-based, African green monkey; settings: African green monkey
Experimental: (§1) All the cell lines were cultured at 37°C with 5% CO2. […] ACV-resistant HSV-1 was generated in our previous study.
(§2) The cells were washed with PBS, added with 0.1 mg/mL MTT reagent [3-(4,5-dimethylthiazol-2-yl)-2,5-diphenyl tetrazolium bromide; Sigma] and incubated at 37°C for 5 hours. After incubation, MTT reagent was removed and DMSO was added to each well. The absorbance was then determined by ELISA reader (SpectraMAX 340, Molecular Devices) at the wavelength of 550 nm.

[2] = tested on: HSV-1; experiment: Plaque reduction assay; format: cell-based; settings: for EC50: read-out: EC50 HSV-1
Experimental: (§3) African green monkey kidney cells (Vero, ATCC CCL-81) and human epithelial carcinoma cells (HEp-2, ATCC CCL-23 and A549, ATCC CCL-185) were maintained in Dulbecco’s modified Eagle’s medium (DMEM), modified Eagle’s medium (MEM) and RPMI-1640 medium, respectively, supplemented with 10% fetal bovine serum (Gibco), 100 units/mL penicillin, and 100 μg/mL streptomycin. All the cell lines were cultured at 37°C with 5% CO2. HSV-1F (ATCC VR-733) and HSV-2G (ATCC VR-734) stocks were propagated in Vero cells, aliquoted and stored at -80°C. ACV-resistant HSV-1 was generated in our previous study.
(§4) 1X 10^6 Vero cells were seeded onto 6-well culture plates for 24 hours and infected with 100 pfu/well virus at 37°C for 1 hour. […] After 3 days, the cells were fixed with 3.7% formaldehyde and stained with crystal violet. The plaques were counted.

[3] = tested on: HSV-2; experiment: Plaque reduction assay; format: cell-based; settings: for EC50: read-out: EC50 HSV-2
Experimental: as §3, §4

[4] = tested on: Vero cells; experiment: MTT cytotoxicity assay; format: cell-based, African green monkey; settings: Vero cells, MTT
Experimental: as §1, §2

[5] = tested on: HSV-1; experiment: Virus pre-treatment assay (plaque assay); format: cell-based; settings: 100 pfu HSV-1 pretreated, Vero cells, Fig. 9A
Experimental: After incubation, HCWEs-pretreated cells were washed with PBS and then infected with 100 pfu HSV. The inhibitory activities were analyzed by plaque assay. […] After 3 hours of incubation, 1X10^6 Vero cells were infected with HCWEs-pretreated virus and then analyzed by plaque assay.

[6] = tested on: HSV-1; experiment: Virus binding to Vero cells, Western blot of cell-bound virus gD; format: cell-based; settings: 1 m.o.i., 4°C
[7] = tested on: NF-κB; experiment: NF-κB translocation analysis by Western blot of nuclear fractions; format: cell-based; settings: HSV-1 infection, nuclear fraction at 3 h.p.i.
Description: During HSV infection, there are two waves of NF-κB activation. The first-wave of NF-κB activation could enhance ICP0 transcription via binding onto viral ICP0 promoter while the second-wave of NF-κB activation could prevent host cells from apoptosis. […] The nuclear fractions were extracted and applied to NF-κB translocation analysis by Western blot assay. […] After transfection, luciferase activity of pGL-ICP0 Wt transfected cells increased up to 3,000-fold compared with the vector control, pGL, in HSV-1 infection. […] Although it is well known the expression of ICP0 is regulated by NF-κB, the exact NF-κB binding site on ICP0 promoter is not identified yet. […] Only one NF-κB binding site was predicted within the HSV-1 ICP0 promoter. To determine whether the HCWEs-mediated ICP0 suppression was NF-κB-dependent, the predicted NF-κB binding site within pGL-ICP0 Wt was mutated by PCR-based mutagenesis and the resulting plasmid was named as pGL-ICP0 Mut. […] The results implied that HSV-1 ICP0 promoter activity was at least partly regulated by NF-κB.

[8] = tested on: Acyclovir-resistant HSV-1 (HSV-AR); experiment: microbe, parasite or virus in culture; format: cell-based; settings: Human alphaherpesvirus 1, Vero, read-out: EC50 HSV-AR
Experimental: as §3, §4

[9] = Vero cells, MTT, read-out: CC50
[10] = Human alphaherpesvirus 1, Vero cells
[11] = Human alphaherpesvirus 2, Vero cells

Structure (SMILES)	CC50 at 3 days [1, 9] [µg/mL]	EC50 [2, 10] [µg/mL]	EC50 [3, 11] [µg/mL]	inhibition of HSV-1 by pretreatment of virus with pure compound [5]	SI HSV-1 (CC50/EC50) [2]	cell binding ability of HSV-1 (Western blot) [6]	also measured
O=C(/C=C/c1ccc(O)c(O)c1)O[C@@H]1C[C@](O)(C(=O)O)C[C@@H](O)[C@H]1O [Chlorogenic acid, chlorogenic acid]	1240 (≈ 3510 µM)	> 1240	> 1240				
O=c1c(O[C@@H]2O[C@H](CO)[C@H](O)[C@H](O)[C@H]2O)c(-c2ccc(O)c(O)c2)oc2cc(O)cc(O)c12 [Hyperin, hyperin]							CC50 [4]: >500 µg/mL; EC50 HSV-1 ([2]; Vero cells): >500 µg/mL; EC50 HSV-2 ([3]; Vero cells): >500 µg/mL
C[C@@H]1O[C@@H](Oc2c(-c3ccc(O)c(O)c3)oc3cc(O)cc(O)c3c2=O)[C@H](O)[C@H](O)[C@H]1O [Quercitrin, quercitrin]	142 (≈ 317 µM)						EC50 ([2]; Human alphaherpesvirus 1, Vero): > 142 µg/mL; EC50 ([3]; Human alphaherpesvirus 2, Vero): > 142 µg/mL
C[C@@H]1O[C@@H](OC[C@H]2O[C@@H](Oc3c(-c4ccc(O)c(O)c4)oc4cc(O)cc(O)c4c3=O)[C@H](O)[C@@H](O)[C@@H]2O)[C@H](O)[C@H](O)[C@H]1O [Rutin, rutin]		188 (≈ 307 µM)	169 (≈ 278 µM)	not	3.745	not	CC50 at 3 days [1]: 702 µg/mL (≈ 1150 µM); SI HSV-2 (CC50/EC50) [3]: 4.146
O=c1c(O)c(-c2ccc(O)c(O)c2)oc2cc(O)cc(O)c12 [Quercetin, quercetin]	486 (≈ 1610 µM)	52.9 (≈ 175 µM)	70 (≈ 232 µM)	targeted virus particles directly and inhibited viral entry	9.18	inhibited the binding of HSV-1 onto host cells	HSV-induced NF-κB translocation / activation [7]: inhibited NF-κB activation; SI HSV-2 (CC50/EC50) [3]: 6.94
Nc1nc2c(ncn2COCCO)c(=O)[nH]1 [Acyclovir, acyclovir, reference compound]	> 450	0.74 (≈ 3.29 µM)	0.82 (≈ 3.64 µM)				EC50 [8]: 14 µg/mL (≈ 62.3 µM)
O=c1c(O[C@@H]2O[C@H](CO)[C@@H](O)[C@H](O)[C@H]2O)c(-c2ccc(O)c(O)c2)oc2cc(O)cc(O)c12 [Isoquercitrin, isoquercitrin]	> 200	0.42 (≈ 0.904 µM)	0.39 (≈ 0.84 µM)	not	>476.2	not	HSV-induced NF-κB translocation / activation [7]: inhibited NF-κB activation
